According to patent US20080102121A1 (Elan Pharma International Limited, priority 1998, published 2008):
Structures can show the parent of a compound that is named as a salt.

Experiments:
[1] = 10 mg oral dose, five adult males; cited from earlier work
[2] = Hydrocodone simulations (one-compartment model); details: estimated from non-compartmental parameters
Protocol: Studies of hydrocodone formulations of the present invention were conducted to simulate the profiles associated with twice-daily administration hydrocodone for both single dose and steady state. […] Non-compartmental parameters were used to find estimates of the unit input response and a one-compartment model was assumed for all simulations.
For the absorption rate constant k01, several profiles were simulated using different estimates of k01.
Options 1 and 2 assumed a first order release and option 3 a zero-order release.

[3] = in vivo; cited from earlier work
[4] = in vivo; cited from earlier work; remark: listed apart in the source
[5] = cited from earlier work

For `COc1ccc2c3c1OC1C(=O)CCC4C(C2)N(C)CC[C@]314` (stereo partly drawn) [Hydrocodone, 4,5a-Epoxy-3-methoxy-1 7-methylmorphinan-6-one tartrate (1:1) hydrate (2:5)], the Cmax [1] is given as 23.6 ± 5.2 ng/mL, the Thalf [1] is given as 3.8 ± 0.3 h and the Tmax [1] is given as 1.3 ± 0.3 h. For the same molecule, the K10 [2] was 0.18, the V/f [2] was 334.29 L and the half life [3] was 4 to 8 h.
In the case of `CC(=O)Nc1ccc(O)cc1` [acetaminophen], the “doses reported as fatal” value [4] is listed as 15,000-20,0000 milligrams a day.
In the case of “4-hydroxy-2-methyl-N-(5-methyl-2-thiazolyl)-2-H-1,2-benzothiazine-3-carboxamide 1,1-dioxide [Meloxicam]”, the “time of second meloxicam concentration peak” value ([5]; fasted steady state conditions, post-dose) is given as “twelve to fourteen” and the bioavailability ([5]; single 30 mg oral dose compared to 30 mg intravenous bolus injection) is given as 89%.
